Experimental data as given in patent publication US11230688B2, “In vitro gastrointestinal model comprising lamina propria-derived cells” (EMULATE, Inc., priority 2016, dated 2022).
Like-named read-outs stand apart in the source and are kept apart here.

What was measured:
[1] = system: microfluidic co-cultures of Caco-2 epithelial cells, HUVECs and LPDCs; assay: Gut-On-Chip cytokine and chemokine production in co-cultures with lamina propria-derived cells; assay type: cell-based, human
Method: An exemplary bacteria antigen used was PAM2CSK4. […] PAM2CSK4 refers to a synthetic diacylated lipopeptide.
In order to determine contributory factors to the trends in permeability changes observed by combinations of prednisone treatments as in Example 5, cytokine and chemokine production were measured from media samples obtained from the microfluidic cultures as described in EXAMPLE 5. After an incubation time, media samples were extracted from the microfluidic device then used for determining amounts cytokine and chemokine produced, such as IL-6 and IL-9 in FIG. 18A-B; IL-8 and G-CSF in FIG. 19A-B; GM-CSF and MCP-1 in FIG. 20A-B; MIP1b and PDGF-AB/BB in FIG. 21A-B; and RANTES in FIG. 22. Amounts of cytokine and chemokine protein are measure in pg/ml (picogram per milliliter).

[2] = system: Caco-2 epithelial cell layer; assay: Gut-On-Chip barrier function (apparent permeability, Papp) with lamina propria-derived cells; conditions: for Loss of barrier function: PAM2CSK4, overnight incubation
From the text: (§1) This permeability assay method for adsorption across a gut wall, i.e. caco-2 cells in a gut-on-chip, measures the rate of transport of a test compound added to the basal side of the membrane, for example, inulin-FITC, across to the apical side. […] Conversely, adding a test compound to the apical side may also be used to measure transport to the basal side.
(§2) The Gut-On-Chip modeling of inflammation was used for testing bacterial antigen effects on barrier function and cytokine production. An exemplary bacteria antigen used was PAM2CSK4. […] PAM2CSK4 refers to a synthetic diacylated lipopeptide.
(§3) A co-culture configured as described herein was incubated in a device of the present inventions as described in FIG. 7.
(§4) Cultivation of Caco-2 cells in microfluidic device: Caco-2 cell monolayers were seeded as described herein. Basal regions of cells were exposed to medium under flow. […] Experimental procedure: Cells were used for this experiment between days 7 and 9 post seeding. Donor solutions (including a 100 μg/ml Inulin-FITC) were prepared, and solutions used in this experiment were prewarmed to 37° C. Inulin-FITC was used as an indicator for the determination of the monolayer integrity. […] Inulin-FITC method: 6 mM Inulin-FITC may be added into an apical region of a monolayer; and incubated for 1 hr. A standard curve may be prepared in a separate container, e.g. a 0.5 to 50 μM; HBSS blank containing 1 to 0.5% DMS0 is placed in wells; Aliquots of 200 μl are transferred from the separate container to a solid black plate; Aliquots of 50 μl are transferred from the device to a solid black plate containing 50 μl HBSS with 1-0.5% DMSO; Plates may be read in a fluorescent reader (Excitation/Emission wavelength 480/530 nm); LY rejection (Pc) values are calculated. V. Molecule transport assay: Transport of a molecule across the monolayer may also be determined; a test compound may be added at the apical region of the monolayer then removed from the apical and/or basal media then analyzed using LC-MS method for loss (e.g. apical region) or gain (e.g. basal region).
(§5) Microfluidic co-cultures with HUVEC cells in the bottom chamber, LPDCs from human non-inflamed regions of UC tissue biopsies, LPDCs from UC inflamed tissue biopsies, and samples with no LPDCs, were overlaid with Caco-2 epithelial cell layers.

[3] = system: Ulcerative Colitis; conditions: cited from earlier work
[4] = system: Intestine On-Chip with TH1 or TH9 populations; assay: Intestine On-Chip seeded with plate-differentiated TH1 or TH9 cells, soluble reagents: cytokine production and gene expression; assay type: cell-based, human; conditions: for IL-10 secretion: TH9 populations
From the text: Experiments were designed to evaluate whether anti-CD3 and anti-CD28 co-stimulatory activation (soluble reagents) on chip would stimulate on chip T cells (previously activated and differentiated on plates) to continue functioning as activated effector cells within the chip tissue microenvironment. Further, TH1 and TH9 T cell populations underwent testing for an exacerbated response (either tissue alterations or changes in the characteristics of the T cell population) to a specific antigen stimulation, e.g. PAM2CSK4 (TLR2) bacterial agonist, with or without additional co-stimulation (i.e. using soluble reagents). Stimulation on-chip was done as a treatment on Day 7 of culture.
In this example, a TH1 cell population was produced from a population of mature/naive CD4+ T cells, as described in Example 7. This population of CD4+ T cells were co-stimulated with adhered CD3 and soluble CD28 antibodies, without added cytokines, for inducing differentiation of TH1 cells on plates. Unlike co-stimulation with adhered CD3 and soluble CD28 antibodies in the presence of TGFB IL-4, and IFNg cytokines which induced differentiation of TH9 cells, as described herein. Thus, in this example, purified CD4+ T cell populations were plated into tissue culture plates for activation and differentiation into one selected T cell subtype, e.g. TH1 in one plate, and TH9 in another plate.
In order to further test whether PBMCs activated and differentiated with soluble factors were capable of inducing inflammation on chips, pro-inflammatory cytokine production was compared between untreated, PAM2CSK4 treated with and without Tofacitinib. […]
Evaluation of the effects of T-cell activation on the Intestine On-Chip by perfusion of soluble immune activating factors (anti-CD3 and anti-CD2) to the media is shown in FIGS. 36A-B-39A-C. In particular, activated T-cell subsets were evaluated for disease-specific cytokine production.

[5] = system: microfluidic co-cultures of Caco-2 epithelial cells, HUVECs and LPDCs; assay: Gut-On-Chip cytokine and chemokine production in co-cultures with lamina propria-derived cells; assay type: cell-based, human; remark: listed apart in the source
[6] = system: Caco-2 epithelial layer
From the text: The chips treated with PAM2CSK4 as a model bacterial antigen are considered infected chips.

[7] = system: resident immune cells from healthy and UC patient LP tissue; assay: Secreted cytokine production of resident immune cells cultured on plates, 24 hour bacterial challenge; assay type: cell-based, human; conditions: immune cells from inflamed UC tissue
[8] = system: TH1 and TH9 CD4+ T cell populations; assay: On-plate bacterial antigen stimulation of differentiated CD4+ T cell subsets (cytokines, IL-9 activation factors); assay type: cell-based, human
From the text: In this example, a TH1 cell population was produced from a population of CD4+ T cells obtained from a sample of PBMCs. This population of CD4+ T cells were co-stimulated with soluble CD3 and CD28 antibodies without added cytokine stimulation for inducing differentiation of TH1 cells. Unlike the co-stimulation with soluble CD3 and CD28 antibodies in the presence of TGFB, IL-4, and IFNg cytokines for inducing differentiation of TH9 cells as described herein.
Thus, in this example, purified CD4+ T cell populations were plated into tissue culture plates for activation and differentiation into one selected T cell subtype, e.g. Th1 in one plate, and Th2 in another plate.
A sample of each TH cell type was exposed to PAM2CSK4, then log 2 fold changes in protein expression of either pathway molecules or IL-9 were measured and compared to duplicate samples not treated with PAM2CSK4.

[9] = system: Caco-2 epithelial cell layer
From the text: as §1, §2, §3, §4, §5

[10] = Prednisone alone, non-inflamed LPDC cultures
[11] = prednisone, inflamed LPDCs, with and without PAM2CSK4
[12] = prednisone, non-inflamed and inflamed LPDCs treated with PAM2CSK4

Question: For `C[C@]12C=CC(=O)C=C1CC[C@@H]1[C@@H]2C(=O)C[C@@]2(C)[C@H]1CC[C@]2(O)C(=O)CO` [prednisone], which PDGF-AA/BB production ([1]; Prednisone alone) is on record?
Answer: did not appear to be a reduction in PDGF-AA/BB

Question: And the GM-CSF production [1, 10]?
Answer: did not appear to be a reduction in GM-CSF

Question: And the MCP-1 production [1, 10]?
Answer: did not appear to be a reduction in MCP-1

Question: And the IL-8 production ([1]; non-inflamed LPDC cultures, Prednisone alone or PAM2CSK4)?
Answer: did not appear to be a reduction in IL-8

Question: What about the IL-9 production ([1]; prednisone on PAM2CSK4-increased IL-9) of the same compound?
Answer: significantly reduced

Question: What about the IL-6 production ([1]; prednisone, inflamed LPDCs, endogenous or induced by PAM2CSK4) of the same compound?
Answer: reduce IL-6 production

Question: And the GM-CSF production [1, 11]?
Answer: reduced GM-CSF production

Question: And the IL-8 production [1, 11]?
Answer: trend for reducing IL-8 production

Question: What about the MCP-1 production [1, 11] of the same compound?
Answer: reduced MCP-1 production

Question: And the IL-6 production ([1]; prednisone, non-inflamed LPDCs)?
Answer: does not appear to have an effect

Question: And the PDGF-AA/BB production ([1]; prednisone, non-inflamed LPDCs)?
Answer: trend for reducing PDGF-AA/BB production

Question: What about the PDGF-AA/BB production [1, 12] of the same compound?
Answer: trend for reducing PDGF-AA/BB production

Question: What about the RANTES production [1, 12] of the same compound?
Answer: trend for reducing RANTES production

Question: And the IL-9 production ([1]; prednisone, non-inflamed and inflamed UC LPDC, regardless of PAM2CSK4)?
Answer: reduced

Question: And the G-CSF production ([1]; prednisone, non-inflamed or inflamed LPDCs, with and without PAM2CSK4)?
Answer: trend for reducing G-CSF production

Question: And the “Inflammatory responses (secreted cytokine production) to PAM2CSK4 treatment” value ([1]; prophylactic prednisone, UC patient's resident immune cells, noninflamed and inflamed tissues)?
Answer: suppresses the inflammatory responses

Question: And the “Permeability (Papp)” value ([2]; FIG. 17A, prednisone, at least one patient sample of non-inflamed LPDCs)?
Answer: some benefit in reducing permeability

Question: What about the “Permeability (Papp)” value ([2]; FIG. 17A, prednisone, at least one patient sample with inflamed UC LPDC) of the same compound?
Answer: undesirable increase

Question: And the “Permeability (Papp)” value ([2]; FIG. 17B, overnight, prednisone, inflamed UC LPDCs)?
Answer: did not induce an increase in permeability

Question: And the “Permeability (Papp)” value ([2]; FIG. 17B, overnight, prednisone, non-inflamed UC LPDC)?
Answer: undesirable increase in permeability

Question: What about the “Permeability (Papp)” value ([2]; overnight, prednisone, inflamed UC LPDC samples) of the same compound?
Answer: both an increase and a decrease in permeability

Question: What about the “Permeability (Papp)” value ([2]; prednisone and PAM2CSK4, inflamed UC LPDC) of the same compound?
Answer: little benefit

Question: And the “Permeability (Papp)” value ([2]; prednisone and PAM2CSK4, non-inflamed UC LPDC)?
Answer: range of responses

Question: What about the “Permeability (Papp), trend” value ([2]; prednisone and bacterial antigen) of the same compound?
Answer: trend for decreasing permeability

Question: What about the “Permeability (Papp), trend” value ([2]; prednisone, inflamed UC LPDC) of the same compound?
Answer: little difference from the non-inflamed LPDC sample

Question: And the “Permeability (Papp), trend” value ([2]; prednisone, non-inflamed UC LPDC)?
Answer: increased permeability

Question: And the “Permeability (Papp), effect on average” value ([2]; prednisone, non-inflamed or inflamed UC LPDC)?
Answer: no significant effect

Question: What about the treated patients non-responsive [3] of the same compound?
Answer: around 16%

Question: What about the “treated patients with full remission” value [3] of the same compound?
Answer: ~54%

Question: And the “treated patients with partial remission” value [3]?
Answer: ~30%

Question: Which IL-10 secretion ([4]; Pam stimulated vs unstimulated) does the source give for PAM2CSK4 here?
Answer: no insignificant differences

Question: What about the IL-8 ([4]; antigen specific stimulation (TLR2 agonist) on activated TH1 and TH9 chips) of the same compound?
Answer: increased

Question: And the “Basal IL-9 cytokine secretion” value ([5]; 4 LP mil/ml, basal areas)?
Answer: induced a higher level of IL-9 production

Question: What about the “Apical IL-9 cytokine secretion” value ([5]; apical regions, 1 and 2 LP mil/ml) of the same compound?
Answer: increased with PAM2CSK4 treatment

Question: And the IL-6 production ([1]; 1, 2 and 4 LP mil/ml, versus co-cultures with no PAM2CSK4)?
Answer: induced a higher level of IL-6 production

Question: What about the IL-9 production ([1]; LP leukocyte co-cultures for each source (healthy, UC non-inflamed, UC inflamed)) of the same compound?
Answer: induce IL-9

Question: What about the IL-6 production ([1]; PAM2CSK4, inflamed LPDC samples) of the same compound?
Answer: increased IL-6 production

Question: And the IL-6 production ([1]; PAM2CSK4, non-inflamed LPDC samples)?
Answer: not with the non-inflamed LPDC samples

Question: What about the IL-9 production ([1]; PAM2CSK4, non-inflamed and inflamed LPDC co-cultures, over endogenous levels) of the same compound?
Answer: significantly induced IL-9 production

Question: And the “Apical IL-9 cytokine secretion” value ([1]; apical regions, 4 LP mil/ml)?
Answer: not at 4 LP mil/ml

Question: What about the IL-9 production ([1]; epithelial cells without LP cells) of the same compound?
Answer: not in epithelial cells without LP cells

Question: And the IL-6 production ([1]; healthy LP leukocyte co-cultures and epithelial cells without LP)?
Answer: induce an IL6 response

Question: And the “Loss of barrier function” value ([2]; 4 LP mil/ml)?
Answer: Loss of barrier function is shown

Question: What about the “Loss of barrier function” value ([2]; LP 1 mil/ml or LP 2 mil/ml) of the same compound?
Answer: not at LP 1 mil/ml or LP 2 mil/ml

Question: And the “Avg. Z Height of Caco-2 epithelial layer” value [6]?
Answer: 84 um+/−11

Question: What about the “Response to TLR2 activation (secreted TNF alpha, IL-6, IL-8)” value [7] of the same compound?
Answer: stronger response

Question: And the “GATA3 and SPI1 (log 2 fold change)” value ([8]; PAM2CSK4, TH1 populations)?
Answer: not GATA3 car SPI11

Question: And the “IL-9 mRNA concentrations” value ([8]; PAM2CSK4, TH1 populations)?
Answer: did significantly increase

Question: And the “IRF4 and IL-9 (log 2 fold change)” value ([8]; PAM2CSK4, TH1 populations)?
Answer: produce measurable IRF4 and IL-9

Question: What about the “IL-9 and IL-9 activation factors (log 2 fold changes)” value ([8]; PAM2CSK4, TH9 populations in tissue culture plate) of the same compound?
Answer: did not significantly increase IL-9

Question: What about the “Cytokine protein expression post differentiation” value ([8]; soluble PAM2CSK4, TH1 (CD) and TH9 (UC) cells on-plates) of the same compound?
Answer: increases in the concentration of protein signaling

Question: What about the “Permeability (Papp)” value [9] of the same compound?
Answer: show an increase in permeability

Question: Which IL-10 secretion ([4]; mixture of PAM2CSK4 and Tofacitinib vs unstimulated) does the source give for Tofacitinib (citrate) here?
Answer: induced significant amounts
